Structures can show the parent of a compound that is named as a salt.
System: patients having a history of atrial fibrillation or atrial flutter
Experiment: Prospective, multinational, multicentre, double-blind, placebo-controlled clinical study (ATHENA); analysis restarting the clock at first AF/AFL recurrence
Type: in vivo
Protocol: More particularly, the effects of dronedarone compared with placebo on cardiovascular (CV) end points were evaluated by restarting the clock at the time of first atrial fibrillation or atrial flutter recurrence detected in a scheduled ECG or requiring cardioversion.
The patients had to have a history of atrial fibrillation or flutter and/or could be in normal sinus rhythm or in atrial fibrillation or flutter at inclusion.
The patient recruitment was carried out by taking into account the following inclusion criteria:
• 1) One of the following risk factors had to be present: • age equal to or greater than 70 years, • hypertension (taking antihypertensives of at least two different classes), • diabetes, • history of cerebral stroke (transient ischemic event or completed cerebral stroke) or of systemic embolism, • left atrial diameter greater than or equal to 50 mm measured by echocardiography, • left ventricular ejection fraction less than 40%, measured by two-dimensional echography; or • age equal to or above 70, or even above 75, possibly combined with at least one of the risk factors below: • o hypertension (taking antihypertensives of at least two different classes), • o diabetes, • o history of cerebral stroke (transient ischemic event or completed cerebral stroke) or of systemic embolism, • o left atrial diameter greater than or equal to 50 mm measured by echocardiography, • o left ventricular ejection fraction less than 40%, measured by two-dimensional echography; • 2) availability of an electrocardiogram carried out during the past 6 months in order to document the presence or the history of atrial fibrillation or flutter; • 3) availability of an electrocardiogram carried out during the past 6 months in order to document the presence or absence of normal sinus rhythm.
• Patients in permanent atrial fibrillation • Patients in unstable hemodynamic condition such as acute pulmonary edema within 12 hours prior to start of study medication; cardiogenic shock; treatment with IV pressor agents; patients on respirator; congestive heart failure of stage NYHA IV within the last 4 weeks; uncorrected, hemodynamically significant primary obstructive valvular disease; hemodynamically significant obstructive cardomyopathy; a cardiac operation or revascularization procedure within 4 weeks preceding randomization • Planned major non-cardiac or cardiac surgery or procedures including surgery for valvular heart disease, coronary artery bypass graft (CABG), percutaneous coronary intervention (PCI), or on urgent cardiac transplantation list • Acute myocarditis or constrictive pericarditis • Bradycardia < 50 bpm and/or PR-interval ≥ 0.28 sec on the last 12-lead ECG. • Significant sinus node disease (documented pause of 3 seconds or more) or 2nd or 3rd degree atrioventricular block (AV-block) unless treated with a pacemaker.
• Plasma potassium < 3.5 mmol/I (as anti-arrhythmic drugs can be arrhythmogenic in patients with hypokalemia, this must be corrected prior to randomization. • A calculated GFR at baseline < 10 ml/min using the Cockroft Gault formula (GFR [ml/min] = (140 - AGE [years] * WEIGHT [kilograms] * CONSTANT / CREATININE [µmol/L], where CONSTANT is 1 for men and 0.85 for women )^i
Treatment was initiated using tablets containing either the placebo or an amount of dronedarone hydrochloride corresponding to 400 mg of dronedarone at a rate of twice a day with the morning and evening meal and more specifically at a rate of one tablet in the morning during or shortly after breakfast and one tablet in the evening during or shortly after dinner.
The anticipated duration of the treatment was variable according to the time at which each patient was included in the study, and could range from a minimum of 12 months for the last patient included up to a maximum corresponding to the entire duration of the study (12 months + duration of inclusion), i.e. approximately 30 months for the first patients included.

[1] = 1 - relative risk, versus placebo, after first AF/AFL recurrence

Row | SMILES | primary composite end point occurred in patients (after a first AF recurrence, CV hospitalization or all-cause mortality, placebo 306) [patients] | primary composite end point occurred in patients (%) (after a first AF recurrence, placebo 38.6%) | patients hospitalized for worsening heart failure (including pulmonary edema or dyspnea of cardiac origin) (after first AF/AFL recurrence, placebo 5.0%) [%] | patients hospitalized for AF (after first AF/AFL recurrence, placebo 21.2%) [%] | total time spent in hospital (all patients with a first AF/AFL recurrence, placebo 1789 nights, P < 0.01) [nights] | percentage of hospitalization time spent in intensive care units (compared with the placebo group, P = 0.01, Figure 3) | first AF recurrence (percentage of patients with a first AF recurrence, placebo 34.1%) [%] | reduction in cardiovascular hospitalizations [1] [%] | reduction in cardiovascular hospitalizations or deaths [1] [%] | reduction in cardiovascular mortality [1] [%] | reduction of death [1] [%] | cardiovascular deaths (673 treated patients with a first AF/AFL recurrence, placebo 35) [cardiovascular deaths] | deaths (mortality from any cause) (673 treated patients with a first AF/AFL recurrence, placebo 51 deaths) [deaths] | events, cardiovascular hospitalizations (673 treated patients with a first AF/AFL recurrence, placebo 288 events) [events] | events, cardiovascular hospitalizations or mortality (principal judgement criterion) (673 treated patients with a first AF/AFL recurrence, placebo 306 events) [events] | relative risk, cardiovascular hospitalizations or deaths (versus placebo, Cox model, after first AF/AFL recurrence, p = 0.0025) | relative risk, cardiovascular hospitalizations (versus placebo, Cox model, after first AF/AFL recurrence, p = 0.0048) | relative risk, death from any cause (versus placebo, Cox model, after first AF/AFL recurrence, p = 0.018) | relative risk, cardiovascular mortality (versus placebo, Cox model, after first AF/AFL recurrence, p = 0.0342)
1 | CCCCc1oc2ccc(NS(C)(=O)=O)cc2c1C(=O)c1ccc(OCCCN(CCCC)CCCC)cc1 [dronedarone, 2-n-Butyl-3-[4-(3-di-n-butylaminopropoxy)benzoyl]-5-methylsulphonamidobenzofuran] | 205 | 30.5 | 3.6 | 15.8 | 1273 | lower | 29.3 | – | – | – | – | – | – | – | – | – | – | – | –
2 | CCCCc1oc2ccc(NS(C)(=O)=O)cc2c1C(=O)c1ccc(OCCCN(CCCC)CCCC)cc1 [dronedarone hydrochloride] | – | – | – | – | – | – | – | 23 | 24 | 47 | 44 | 15 | 23 | 195 | 205 | 0.76 | 0.77 | 0.56 | 0.53

From EP2386300A1, “Use of dronedarone for the preparation of a medicament for use in the prevention of cardiovascular hospitalization or of mortality in patients having a first recurrence of atrial fibrillation or atrial flutter” (SANOFI, priority 2010, dated 2011)
